Laboratory results reported in US20230099293A1, “OGA INHIBITOR COMPOUNDS” (priority 2019, published 2023).

Assays:
[1] = target: T1, recombinant human Meningioma Expressed Antigen 5 (MGEA5), also referred to as O-GlcNAcase (OGA) (Homo sapiens, UniProt O60502); assay: OGA biochemical assay (inhibition of FM-GlcNAc hydrolysis, fluorescence); conditions: for IC50: Enzymatic hOGA; for Emax: read-out: Enzymatic Emax (%)
T1 construct: Full length OGA enzyme was purchased at OriGene (cat #TP322411); purchased OriGene TP322411
T1 sequence (O60502 1-916): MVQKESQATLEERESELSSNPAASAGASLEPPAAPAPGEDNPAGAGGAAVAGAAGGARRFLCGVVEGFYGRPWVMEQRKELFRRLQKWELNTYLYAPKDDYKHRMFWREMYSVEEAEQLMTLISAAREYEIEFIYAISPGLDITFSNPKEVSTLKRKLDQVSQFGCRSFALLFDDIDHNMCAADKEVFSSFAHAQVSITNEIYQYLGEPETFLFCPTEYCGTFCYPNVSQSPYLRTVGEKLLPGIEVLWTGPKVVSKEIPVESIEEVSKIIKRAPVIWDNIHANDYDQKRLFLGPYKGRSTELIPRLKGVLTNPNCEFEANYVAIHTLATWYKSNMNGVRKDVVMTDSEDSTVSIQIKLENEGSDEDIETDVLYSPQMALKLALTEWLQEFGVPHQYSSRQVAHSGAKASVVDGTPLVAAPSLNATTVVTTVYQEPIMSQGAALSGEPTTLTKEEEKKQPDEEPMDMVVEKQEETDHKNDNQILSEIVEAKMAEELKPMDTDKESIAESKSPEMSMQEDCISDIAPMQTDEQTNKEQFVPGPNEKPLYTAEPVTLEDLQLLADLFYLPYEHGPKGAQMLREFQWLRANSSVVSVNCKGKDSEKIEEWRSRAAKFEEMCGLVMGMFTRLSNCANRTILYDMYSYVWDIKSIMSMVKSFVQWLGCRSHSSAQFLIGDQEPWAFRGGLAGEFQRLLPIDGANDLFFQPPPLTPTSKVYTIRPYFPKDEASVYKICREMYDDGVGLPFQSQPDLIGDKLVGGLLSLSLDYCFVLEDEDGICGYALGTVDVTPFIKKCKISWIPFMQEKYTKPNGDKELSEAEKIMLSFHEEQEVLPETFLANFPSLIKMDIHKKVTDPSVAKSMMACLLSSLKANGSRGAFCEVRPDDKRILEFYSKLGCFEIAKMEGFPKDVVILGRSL
Protocol: The hydrolysis FM-GlcNAc (Marker Gene technologies, cat #M1485) results in the formation of β-D-N-glucosamineacetate and fluorescein. The fluorescence of the latter can be measured at excitation wavelength 485 nm and emission wavelength 538 nm. An increase in enzyme activity results in an increase in fluorescence signal. Full length OGA enzyme was purchased at OriGene (cat #TP322411). The enzyme was stored in 25 mM Tris.HCl, pH 7.3, 100 mM glycine, 10% glycerol at −20° C. […] The assay was performed in 200 mM Citrate/phosphate buffer supplemented with 0.005% Tween-20. 35.6 g Na2HIPO42H2O (Sigma, #C0759) were dissolved in 1 L water to obtain a 200 mM solution. […] The buffer to stop the reaction consists of a 500 mM Carbonate buffer, pH 11.0. […] OGA was used at a 2 nM concentration and FM-GlcNAc at a 100 uM final concentration. Dilutions were prepared in assay buffer.
Plates were pre-incubated for 60 min at room temperature and then 2 μl FM-GlcNAc substrate mix added. […] Plates were briefly centrifuged for 1 min at 1000 rpm and incubate at room temperature for 6 h. To stop the reaction 5 μl STOP buffer were added and plates centrifuge again 1 min at 1000 rpm. Fluorescence was quantified in the Thermo Scientific Fluoroskan Ascent or the PerkinElmer EnVision with excitation wavelength 485 nm and emission wavelength 538 nm.
For analysis a best-fit curve is fitted by a minimum sum of squares method. From this an IC50 value and Hill coefficient was obtained. High control (no inhibitor) and low control (saturating concentrations of standard inhibitor) were used to define the minimum and maximum values.

hOGA = target: T2, hOGA (Homo sapiens, UniProt O60502); assay: OGA cellular assay (ICC detection of O-GlcNAcylated proteins in HEK293 cells inducible for P301L mutant human Tau); assay type: cell-based; set-up: Emax: dose or concentration left out as unconfirmed; conditions: for EC50: Cellular hOGA; for Emax: HEK293, read-out: Cellular Emax (%)
T2 construct: endogenous in cells; host or cells: HEK293 cells inducible for P301L mutant human Tau (isoform 2N4R)
T2 sequence (O60502 1-916): T1 sequence (O60502 1-916)
Protocol: HEK293 cells inducible for P301L mutant human Tau (isoform 2N4R) were established at Janssen. Thiamet-G was used for both plate validation (high control) and as reference compound (reference EC50 assay validation). OGA inhibition is evaluated through the immunocytochemical (ICC) detection of O-GlcNAcylated proteins by the use of a monoclonal antibody (CTD110.6; Cell Signaling, #9875) detecting O-GlcNAcylated residues as previously described (Dorfmueller et al. 2010 Chemistry & biology, 17:1250). Inhibition of OGA will result in an increase of O-GlcNAcylated protein levels resulting in an increased signal in the experiment. Cell nuclei are stained with Hoechst to give a cell culture quality control and a rough estimate of immediate compounds toxicity, if any. ICC pictures are imaged with a Perkin Elmer Opera Phenix plate microscope and quantified with the provided software Perkin Elmer Harmony 4.1.
Cells were propagated in DMEM high Glucose (Sigma, #D5796) following standard procedures. 2 days before the cell assay cells are split, counted and seeded in Poly-D-Lysine (PDL) coated 96-wells (Greiner, #655946) plate at a cell density of 12,000 cells per cm^2 (4,000 cells per well) in 100 μl of Assay Medium (Low Glucose medium is used to reduce basal levels of GlcNAcylation) (Park et al. 2014 The Journal of biological chemistry 289:13519). At the day of compound test medium from assay plates was removed and replenished with 90 μl of fresh Assay Medium. 10 μl of compounds at a 10 fold final concentration were added to the wells. Plates were centrifuged shortly before incubation in the cell incubator for 6 hours. DMSO concentration was set to 0.2%. Medium is discarded by applying vacuum. For staining of cells medium was removed and cells washed once with 100 μl D-PBS (Sigma, #D8537). From next step onwards unless other stated assay volume was always 50 μl and incubation was performed without agitation and at room temperature. Cells were fixed in 50 μl of a 4% paraformaldehyde (PFA, Alpha aesar, #043368) PBS solution for 15 minutes at room temperature. […] Before analysis samples were washed 2 times manually for 5 minutes in ICC base buffer.
Imaging is performed using Perkin Elmer Phenix Opera using a water 20× objective and recording 9 fields per well. Intensity readout at 488 nm is used as a measure of O-GlcNAcylation level of total proteins in wells. To assess potential toxicity of compounds nuclei were counted using the Hoechst staining. IC50-values are calculated using parametric non-linear regression model fitting. As a maximum inhibition Thiamet Gat a 200 uM concentration is present on each plate. In addition, a concentration response of Thiamet G is calculated on each plate.

[2] = pIC50, Table 5, full length OGA 2 nM, FM-GlcNAc 100 uM, 6 h at room temperature
[3] = pEC50, Table 5, HEK293 P301L Tau cells, 6 hours incubation, O-GlcNAcylation readout
[4] = pIC50, second table, averaged values over several runs, obtained after recalibration of the equipment
[5] = pEC50, second table, averaged values over several runs, obtained after recalibration of the equipment

| Compound | IC50 [1, 2] [nM] | Emax [1] [%] | EC50 (hOGA; [3]) [nM] | Emax (hOGA) [%] | melting point [°C] | IC50 [1, 4] [nM] | EC50 (hOGA; [5]) [nM] |
| --- | --- | --- | --- | --- | --- | --- | --- |
| Cc1ccc(C(F)(F)F)c(C)c1Nc1nccc2c1ncn2CC(=O)N(C)C [Compound 18] | 16.2 | 99 | 631 | 56 | 250 |  |  |
| CCc1cc(C(F)(F)F)cc(C)c1Nc1nccc2c1ncn2CC(=O)N(C)C [Compound 10] | 9.33 | 100 | 100 | 100 | 211.6 |  |  |
| Cc1cc(OC(F)(F)F)cc(C)c1Nc1nccc2c1ncn2CC(=O)N(C)C [Compound 9] | 6.76 | 99 | 58.9 | 82 | 186.5 |  |  |
| Cc1cc(C(F)(F)F)cc(C)c1Nc1nccc2c1ncn2Cc1ccon1 [Compound 59, N-(2,6-dimethyl-4-(trifluoromethyl)phenyl)-1-(isoxazole-3-ylmethyl)-1H-imidazo[4,5-c]pyridine-4-amine] | 9.12 | 101 |  | 72 | 154.7 |  |  |
| Cc1ccc(-n2nc(C)c(Nc3nccc4c3ncn4CC(=O)N(C)C)c2C)cc1 [Compound 45] | 23.4 | 94 | 550 | 94 | 214.9 |  |  |
| COc1cc(C)c(Nc2nccc3c2ncn3CC(=O)N(C)C)c(C)c1 [Compound 8] | 5.5 | 97 | 26.9 | 98 | 230 |  |  |
| Cc1cc(C(F)(F)F)nc(C)c1Nc1nccc2c1ncn2CC(=O)N(C)C [Compound 23] | 45.7 | 99 | 1020 | 51 | 233.3 |  |  |
| Cc1cc(C(F)(F)F)cc(C)c1Nc1nccc2c1ncn2-c1cn(C)cn1 [Compound 82, N-(2,6-dimethyl-4-(trifluoromethyl)phenyl)-1-(1-methyl-1H-imidazol-4-yl)-1H-imidazo[4,5-c]pyridin-4-amine] | 174 | 97 |  |  | 184.8 | 170 | > 1000 |
| CN(C)C(=O)Cn1cnc2c(Nc3ccc(F)cc3C(F)(F)F)nccc21 [Compound 29] | 1000 | 100 | > 200 | 2 | 246.7 |  |  |
| Cc1nn(-c2ccccc2)c(C)c1Nc1nccc2c1ncn2CC(=O)N(C)C [Compound 41] | 28.2 | 95 | > 1000 | 44 | 126.3 |  |  |
| Cc1cc(Cl)cc(C)c1Nc1nccc2c1ncn2CC(=O)N(C)C [Compound 11] | 10 | 99 | 209 | 62 | 209.8 |  |  |
| CCN(C)C(=O)Cn1cnc2c(Nc3c(C)cc(C(F)(F)F)cc3C)nccc21 [Compound 63, 2-[4-[2,6-Dimethyl-4-(trifluoromethyl)anilino]imidazo[4,5-c]pyridin-1-yl]-N-ethyl-N-methyl-acetamide] | 9.33 | 98 | 89.1 | 100 | 186.5 |  |  |
| Cc1cc(C(F)(F)F)cc(C)c1Nc1ncc(C)c2c1cnn2CC(=O)N(C)C [Compound 81, 2-(4-((2,6-Dimethyl-4-(trifluoromethyl)phenyl)amino)-7-methyl-1H-pyrazolo[4,3-c]pyridin-1-yl)-N,N-dimethylacetamide] | 69.2 | 100 | 537 | 66 | 211.6 |  | 151 |
| Cc1ccc(-n2nc(C)c(Nc3nccc4c3ncn4CC(=O)N(C)C)c2C)cc1C [Compound 42] | 21.9 | 93 | 295 | 70 | 144.7 |  |  |
| Cc1cc(F)c(F)c(C)c1Nc1nccc2c1ncn2CC(=O)N1CCC1 [Compound 79] |  |  |  |  | 214.8 | 251 | > 1000 |
| Cc1cc(C(F)(F)F)cc(F)c1Nc1nccc2c1ncn2CC(=O)N(C)C [Compound 25] | 135 | 96 | > 1000 | 29 | 226.6 |  |  |
